Literature values in patent US8680143B2, “Orally active curcuminoid compounds” (Laila Pharmaceuticals Pvt. Ltd., priority 2008, dated 2014).

O=C(C=Cc1ccc(O)c(O)c1)CC(=O)C=Cc1ccc(O)c(O)c1 [Bis-O-demethylcurcumin, 1,7-bis(3,4-dihydroxyphenyl)-1,6-heptadiene-3,5-dione]
oral bis-O-demethylcurcumin that enters the plasma: less than 1%
